Measurements reported in patent publication EP4230620A1, “SUBSTITUTED N-AMINO-N-BENZOIC ACID URACILS, THEIR SALTS AND USE OF SAID COMPOUNDS AS HERBICIDAL AGENTS” (Bayer Aktiengesellschaft, priority 2022, dated 2023).

Tests used:
Type in all cases: in vivo
Amaranthus retroflexus = experiment: Post-emergence herbicidal action in greenhouse against AMARE; settings: post-emergence spray, 600 l/ha water, visual rating after ca. 3 weeks vs untreated controls, 100% = plants dead, 0% = like control plants
From the text: (§1) Biologische Beispiele: • Die folgenden Abkürzungen werden für die in den folgenden Tabellen aufgeführten Kultur- und Schadpflanzen verwendet: ABUTH: Abutilon theophrasti ALOMY: Alopecurus myosuroides AMARE: Amaranthus retroflexus BRSNS: Brassica napus DIGSA: Digitaria sanguinalis ECHCG: Echinochloa crus-galli GLXMA: Glycine max KCHSC: Kochia scoparia LOLRI: Lolium rigidum MATIN: Matricaria inodora ORYZA: Oryza sativa PHPBU: Pharbitis purpurea POLCO: Polygonum convolvulus SETVI: Setaria viridis VERPE: Veronica persica VIOTR: Viola tricolor TRZAS: Triticum aestivum ZEAMX: Zea mays • A. Herbizide Wirkung im Nachauflauf
(§2) Samen von mono- bzw. dikotylen Unkrautpflanzen wurden in Kunststoff- oder Holzfasertöpfen in sandigem Lehmboden ausgelegt, mit Erde abgedeckt und im Gewächshaus unter kontrollierten Wachstumsbedingungen angezogen. 2 bis 3 Wochen nach der Aussaat wurden die Versuchspflanzen im Einblattstadium behandelt. Die in Form von benetzbaren Pulvern (WP) oder als Emulsionskonzentrate (EC) formulierten erfindungsgemäßen Verbindungen wurden dann als wässrige Suspension bzw. Emulsion unter Zusatz von 0,5% Additiv mit einer Wasseraufwandmenge von umgerechnet 600 l/ha auf die grünen Pflanzenteile gesprüht. Nach ca. 3 Wochen Standzeit der Versuchspflanzen im Gewächshaus, unter optimalen Wachstumsbedingungen, wurde die Wirkung der Präparate visuell im Vergleich zu unbehandelten Kontrollen bonitiert. Beispielsweise bedeutet 100% Wirkung = Pflanzen sind abgestorben, 0% Wirkung = wie Kontrollpflanzen.
(§3) In den nachstehenden Tabellen A1 bis A11 sind die Wirkungen ausgewählter Verbindungen der allgemeinen Formel (I) gemäß der Tabelle 1 auf verschiedene Schadpflanzen und einer Aufwandmenge entsprechend 20 g/ha und niedriger, die gemäß zuvor genannter Versuchsvorschrift erhalten wurden, dargestellt. Tabelle A1a: Nachauflaufwirkung bei 1,25 g/ha gegen ABUTH in %

Digitaria sanguinalis = experiment: Post-emergence herbicidal action in greenhouse against DIGSA; settings: 20 g/ha, visual rating after ca. 3 weeks
From the text: as §1, §2, §3

Matricaria inodora = experiment: Post-emergence herbicidal action in greenhouse against MATIN; settings: 20 g/ha, visual rating after ca. 3 weeks
From the text: as §1, §2, §3

Pharbitis purpurea = experiment: Post-emergence herbicidal action in greenhouse against PHBPU; settings: visual rating after ca. 3 weeks
From the text: as §1, §2, §3

Polygonum convolvulus = experiment: Post-emergence herbicidal action in greenhouse against POLCO; settings: visual rating after ca. 3 weeks
From the text: as §1, §2, §3

Setaria viridis = experiment: Post-emergence herbicidal action in greenhouse against SETVI; settings: visual rating after ca. 3 weeks
From the text: as §1, §2, §3

Veronica persica = experiment: Post-emergence herbicidal action in greenhouse against VERPE; settings: 20 g/ha, visual rating after ca. 3 weeks
From the text: as §1, §2, §3

Viola tricolor = experiment: Post-emergence herbicidal action in greenhouse against VIOTR; settings: visual rating after ca. 3 weeks
From the text: as §1, §2, §3

Zea mays = experiment: Post-emergence action on crop plants in greenhouse, ZEAMX; settings: 1,25 g/ha, crop plant, post-emergence, visual rating after ca. 3 weeks; 100% = plants dead, 0% = like control plants
From the text: as §1
as §2, with “Kulturpflanzen” for “Unkrautpflanzen”
as §3, with “B1” for “A1”, “B4” for “A11”, “Kulturpflanzen” for “Schadpflanzen”, “B1a:” for “A1a:”, “ZEAMX” for “ABUTH”

Triticum aestivum = experiment: Post-emergence action on crop plants in greenhouse, TRZAS; settings: crop plant, visual rating after ca. 3 weeks, 100% = plants dead, 0% = like control plants
From the text: as §1
as §2, with “Kulturpflanzen” for “Unkrautpflanzen”
as §3, with “B1” for “A1”, “B4” for “A11”, “Kulturpflanzen” for “Schadpflanzen”, “B1a:” for “A1a:”, “ZEAMX” for “ABUTH”

Oryza sativa = experiment: Post-emergence action on crop plants in greenhouse, ORYZA; settings: crop plant, visual rating after ca. 3 weeks, 100% = plants dead, 0% = like control plants
From the text: as §1
as §2, with “Kulturpflanzen” for “Unkrautpflanzen”
as §3, with “B1” for “A1”, “B4” for “A11”, “Kulturpflanzen” for “Schadpflanzen”, “B1a:” for “A1a:”, “ZEAMX” for “ABUTH”

Brassica napus = experiment: Post-emergence action on crop plants in greenhouse, BRSNS; settings: crop plant; 1,25 g/ha; post-emergence spray, 600 l/ha water; visual rating after ca. 3 weeks vs untreated controls; 100% = plants dead, 0% = like control plants
From the text: as §1
Samen von mono- bzw. dikotylen Kulturpflanzen wurden in Kunststoff- oder Holzfasertöpfen in sandigem Lehmboden ausgelegt, mit Erde abgedeckt und im Gewächshaus unter kontrollierten Wachstumsbedingungen angezogen. 2 bis 3 Wochen nach der Aussaat wurden die Versuchspflanzen im Einblattstadium behandelt. Die in Form von benetzbaren Pulvern (WP) oder als Emulsionskonzentrate (EC) formulierten erfindungsgemäßen Verbindungen wurden dann als wässrige Suspension bzw. Emulsion unter Zusatz von 0,5% Additiv mit einer Wasseraufwandmenge von umgerechnet 600 l/ha auf die grünen Pflanzenteile gesprüht. […]

Nachauflaufwirkung gegen ZEAMX (Zea mays): 20%
Nachauflaufwirkung gegen TRZAS (Triticum aestivum; 1,25 g/ha): 0%
Nachauflaufwirkung gegen TRZAS (Triticum aestivum; 5 g/ha): 0%
Nachauflaufwirkung gegen TRZAS (Triticum aestivum; 20 g/ha): 20%
Nachauflaufwirkung gegen ORYZA (Oryza sativa; 1,25 g/ha): 0%
Nachauflaufwirkung gegen ORYZA (Oryza sativa; 5 g/ha): 0%
Nachauflaufwirkung gegen ORYZA (Oryza sativa; 20 g/ha): 0%
Compound: CC(C)(OC(=O)c1cc(-n2c(=O)cc(C(F)(F)F)n(N)c2=O)ccc1Cl)C(=O)O [I.2-481, 2-({5-[3-Amino-2,6-dioxo-4-(trifluormethyl)-3,6-dihydropyrimidin-1(2H)-yl]-2-chlorbenzoyl}oxy)-2-methylpropansäure]
Nachauflaufwirkung gegen AMARE (Amaranthus retroflexus; 1,25 g/ha): 90%
Nachauflaufwirkung gegen AMARE (Amaranthus retroflexus; 5 g/ha): 100%
Nachauflaufwirkung gegen AMARE (Amaranthus retroflexus; 20 g/ha): 100%
Nachauflaufwirkung gegen DIGSA (Digitaria sanguinalis): 100%
Nachauflaufwirkung gegen MATIN (Matricaria inodora): 100%
Nachauflaufwirkung gegen PHBPU (Pharbitis purpurea; 5 g/ha): 100%
Nachauflaufwirkung gegen PHBPU (Pharbitis purpurea; 20 g/ha): 100%
Nachauflaufwirkung gegen POLCO (Polygonum convolvulus; 5 g/ha): 100%
Nachauflaufwirkung gegen POLCO (Polygonum convolvulus; 20 g/ha): 100%
Nachauflaufwirkung gegen SETVI (Setaria viridis; 1,25 g/ha): 80%
Nachauflaufwirkung gegen SETVI (Setaria viridis; 5 g/ha): 90%
Nachauflaufwirkung gegen SETVI (Setaria viridis; 20 g/ha): 100%
Nachauflaufwirkung gegen VERPE (Veronica persica): 100%
Nachauflaufwirkung gegen VIOTR (Viola tricolor; 5 g/ha): 80%
Nachauflaufwirkung gegen VIOTR (Viola tricolor; 20 g/ha): 100%
Nachauflaufwirkung gegen BRSNS (Brassica napus): 0%
